In DBAASP one finds MIC data, which are given here for five compounds.

Some test systems named below: Bacillus subtilis 1A751; Escherichia coli D21; Acinetobacter junii RT-4; Staphylococcus capitis 1; Bacillus megaterium Bm11; Saccharomyces cerevisiae; Acinetobacter baumannii; Pseudomonas fluorescens; Escherichia coli JM109; Pseudomonas putida.
What all share (test): ≥ marks a high value that may be exact or a test limit, other limits are often not marked, values filed in µg/mL are converted to µM
Assay [1] relates to Candida albicans ATCC 90028.
Assay [2] relates to Acinetobacter baumannii NM8.
Assay [3] relates to Acinetobacter baumannii NM75.
Assay [4] deals with Escherichia coli ATCC 25726.
The test system of assay [5] is Staphylococcus aureus ATCC 25923.
Assay [6] deals with Escherichia coli ATCC 25922.
For assay [7], the system named is Salmonella enterica subsp. enterica serovar Choleraesuis CMCC 50020.
The test system of assay [8] is Acinetobacter baumannii ATCC 19606.
Assay [9] deals with Schizosaccharomyces pombe.
For assay [10], the system named is Pseudomonas syringae pv. tabaci 1918NCPPB.
Assay [11] concerns Enterococcus faecalis ATCC 29212.
The test system of assay [12] is Pseudomonas aeruginosa ATCC 27853.
For assay [13], the system named is Yersinia pseudotuberculosis YPIII.
The subject of assay [14] is Staphylococcus aureus Cowan 1.
In assay [15] the test system is Pseudomonas aeruginosa ATCC 15692.
The test system of assay [16] is Candida albicans ATCC 10231.
For assay [17], the system named is Staphylococcus epidermidis ATCC 12228.
The test system of assay [18] is Streptococcus pyogenes ATCC 21547.
Assay [19] deals with Staphylococcus epidermidis RP62A.
For assay [20], the system named is Staphylococcus aureus ATCC 29213.
In assay [21] the test system is Stenotrophomonas maltophilia.
Assay [22] deals with Staphylococcus epidermidis RP62A/1.
The test system of assay [23] is Klebsiella pneumoniae ATCC 700603.
Assay [24] deals with Proteus mirabilis ATCC 25933.
The subject of assay [25] is Klebsiella oxytoca AB2010143.
Assay [26] has as its system Enterobacter cloacae subsp. cloacae AB2010162.
The subject of assay [27] is Salmonella enterica AB2010185.
In assay [28] the test system is Staphylococcus aureus AB94004.
Assay [29] has as its system Escherichia coli DH5alpha.
For assay [30], the system named is Bacillus magaterium AB90008.
Assay [31] has as its system Candida tropicalis AY91009.
Assay [32] deals with Bacillus thuringiensis AB93100.

In brackets after ≈: the same amount, converted by molar mass.

As to `CC[C@H](C)[C@H](NC(=O)CNC(=O)[C@H](CCCCN)NC(=O)[C@@H](NC(=O)[C@H](CC(C)C)NC(=O)[C@H](CO)NC(=O)CNC(=O)[C@H](CC(C)C)NC(=O)CNC(=O)[C@H](C)NC(=O)[C@H](CCCCN)NC(=O)[C@H](Cc1ccccc1)NC(=O)[C@@H](NC(=O)[C@H](CCCCN)NC(=O)[C@H](CCCCN)NC(=O)[C@H](CC(C)C)NC(=O)CN)[C@@H](C)CC)C(C)C)C(=O)N[C@@H](CCCCN)C(=O)N[C@@H](C)C(=O)N[C@@H](Cc1cnc[nH]1)C(=O)N[C@H](C(=O)N[C@@H](C)C(=O)N[C@@H](CO)C(N)=O)C(C)C` [GLKKIFKAGLGSLVKGIKAHVAS], the MIC (usually the lowest concentration that inhibits growth of the organism) is 20 µM (≈ 46.4 µg/mL) in assay [1]; 5 µM (≈ 11.6 µg/mL) in [2]; 2.5 µM (≈ 5.8 µg/mL) in [3]; 10 µM (≈ 23.2 µg/mL) in assay [4]; above 250 µM in [5].

For `CC[C@H](C)[C@H](NC(=O)[C@H](CCCCN)NC(=O)[C@H](CC(=O)O)NC(=O)[C@H](CC(C)C)NC(=O)[C@@H](NC(=O)[C@H](CC(N)=O)NC(=O)[C@H](CC(C)C)NC(=O)[C@H](Cc1ccccc1)NC(=O)[C@H](Cc1ccccc1)NC(=O)[C@H](CCCCN)NC(=O)[C@H](CCCCN)NC(=O)CNC(=O)[C@H](C)NC(=O)[C@H](CCC(N)=O)NC(=O)[C@H](CCCCN)NC(=O)[C@@H](NC(=O)[C@@H](NC(=O)[C@H](CC(=O)O)NC(=O)[C@H](Cc1c[nH]c2ccccc12)NC(=O)[C@H](CC(C)C)NC(=O)CN)[C@@H](C)O)[C@@H](C)CC)C(C)C)C(=O)N[C@@H](CCCN=C(N)N)C(=O)N[C@H]1CSSC[C@@H](C(=O)N[C@@H](CCCN=C(N)N)C(=O)N[C@H](C(=O)O)[C@@H](C)O)NC(=O)CNC(=O)CNC(=O)[C@H](C)NC(=O)[C@H](C(C)C)NC(=O)[C@H](CCCCN)NC1=O` [GLWDTIKQAGKKFFLNVLDKIRCKVAGGCRT], the MIC is 1.15 µM (≈ 4 µg/mL) against Bacillus subtilis 1A751, 4.61 µM (≈ 16 µg/mL) in [6], at least 36.9 µM in [7] and 4.61 µM (≈ 16 µg/mL) in [5].

As for `CC(C)C[C@H](NC(=O)[C@H](CC(C)C)NC(=O)[C@H](CCCN=C(N)N)NC(=O)CNC(=O)[C@H](CC(C)C)NC(=O)[C@H](CC(C)C)NC(=O)[C@H](CCCCN)NC(=O)[C@H](CO)NC(=O)[C@H](CC(C)C)NC(=O)[C@H](Cc1c[nH]c2ccccc12)NC(=O)[C@H](CCC(N)=O)NC(=O)[C@H](CC(C)C)NC(=O)[C@@H](N)CC(C)C)C(N)=O` [LLQWLSKLLGRLL], the MIC against Escherichia coli D21 stood at 12 µM (≈ 18.6 µg/mL); in assay [8], 12 µM (≈ 18.6 µg/mL); in assay [9], 3 µM (≈ 4.66 µg/mL); in assay [10] it was 6 µM (≈ 9.31 µg/mL); in assay [11], 3 µM (≈ 4.66 µg/mL); with Acinetobacter junii RT-4, 24 µM (≈ 37.2 µg/mL). Besides, the MIC is 1.5 µM (≈ 2.33 µg/mL) in the assay on Staphylococcus capitis 1; 6 µM (≈ 9.31 µg/mL) in assay [6]; 24 µM (≈ 37.2 µg/mL) in [12]; 3 µM (≈ 4.66 µg/mL) in assay [13]; 1.5 µM (≈ 2.33 µg/mL) in [14]; 12 µM (≈ 18.6 µg/mL) in assay [15]. The MIC came to 6 µM (≈ 9.31 µg/mL) in assay [16]; 1.5 µM (≈ 2.33 µg/mL) in assay [17]; 3 µM (≈ 4.66 µg/mL) in assay [5]; 1.5 µM (≈ 2.33 µg/mL) in the assay on Bacillus megaterium Bm11; 3 µM (≈ 4.66 µg/mL) against Saccharomyces cerevisiae; 6 µM (≈ 9.31 µg/mL) in assay [18].

With `CC[C@H](C)[C@H](N)C(=O)N[C@@H](CCCCN)C(=O)N[C@@H](CC(C)C)C(=O)N[C@@H](CO)C(=O)N1CCC[C@H]1C(=O)N[C@@H](CCCCN)C(=O)N[C@H](C(=O)N[C@@H](CCCCN)C(=O)N[C@@H](CC(=O)O)C(=O)N[C@@H](CC(N)=O)C(=O)N[C@@H](CC(C)C)C(=O)N[C@@H](CCCCN)C(=O)N[C@@H](CCCCN)C(=O)N[C@H](C(=O)N[C@@H](CC(C)C)C(=O)N[C@@H](CCCCN)C(=O)NCC(=O)N[C@@H](C)C(=O)N[C@H](C(=O)N[C@@H](CCCCN)C(=O)NCC(=O)N[C@@H](C)C(=O)N[C@H](C(=O)N[C@@H](C)C(=O)N[C@H](C(=O)N[C@@H](C)C(=O)N[C@@H](CCCCN)C(=O)N[C@@H](CCSC)C(=O)N[C@H](C(N)=O)C(C)C)C(C)C)[C@@H](C)CC)[C@@H](C)CC)C(C)C)[C@@H](C)O` [IKLSPKTKDNLKKVLKGAIKGAIAVAKMV], the MIC in [19] is 0.8 µM (≈ 2.45 µg/mL); in assay [20] it was 3.1 µM (≈ 9.49 µg/mL); with Acinetobacter baumannii, 6.25 µM (≈ 19.1 µg/mL); in assay [1], at least 100 µM; in assay [21] it was 1.6 µM (≈ 4.9 µg/mL); in assay [22] it was 0.8 µM (≈ 2.45 µg/mL). For the same compound, the MIC is 6.25 µM (≈ 19.1 µg/mL) in [23]; 12.5 µM (≈ 38.3 µg/mL) in [12]; 6.25 µM (≈ 19.1 µg/mL) in assay [4]; at least 100 µM in assay [24]; 1.6 µM (≈ 4.9 µg/mL) in [5].

Turning to `CC[C@H](C)[C@H](NC(=O)[C@H](CC(C)C)NC(=O)[C@H](CCCN=C(N)N)NC(=O)[C@H](CCCCN)NC(=O)[C@@H](NC(=O)[C@@H](NC(=O)CNC(=O)[C@H](CC(C)C)NC(=O)[C@H](CC(C)C)NC(=O)[C@H](CCCN=C(N)N)NC(=O)CNC(=O)[C@H](CO)NC(=O)[C@H](CCC(=O)O)NC(=O)[C@H](CCCN=C(N)N)NC(=O)[C@H](CCC(=O)O)NC(=O)[C@H](CCCCN)NC(=O)[C@H](CCC(=O)O)NC(=O)[C@H](CO)NC(=O)[C@@H](NC(=O)CNC(=O)[C@@H](N)CO)[C@@H](C)O)C(C)C)C(C)C)C(=O)N[C@H](C(=O)N[C@@H](CS)C(=O)N[C@@H](Cc1ccccc1)C(=O)N[C@@H](CCCN=C(N)N)C(=O)N[C@@H](CO)C(=O)N1CCC[C@H]1C(=O)N[C@@H](Cc1ccccc1)C(=O)N1CCC[C@H]1C(N)=O)C(C)C` [SGTSEKERESGRLLGVVKRLIVCFRSPFP], the MIC in [25] is at least 50.5 µM; in [26], at least 47.9 µM; in assay [27], 25 µM (≈ 81.2 µg/mL); in assay [28], 23.6 µM (≈ 76.6 µg/mL); in the assay with Pseudomonas fluorescens, 23.8 µM (≈ 77.3 µg/mL); in assay [29], at least 51.2 µM. Besides, the minimum inhibitory concentration (MIC) against Escherichia coli JM109 was at least 50.4 µM; in the assay on Pseudomonas putida, 24 µM (≈ 77.9 µg/mL); in [30] it was 11.8 µM (≈ 38.3 µg/mL); in [31], at least 48.6 µM; in assay [32], at least 46.5 µM.
